Measurements published in patent US4898867A, “Thienopyrimidine derivaties as aldose-reductase inhibitors” (Taiho Pharmaceutical Company, Limited, priority 1987, dated 1990).
Structures can show the parent of a compound that is named as a salt.

Target: T1, aldose-reductase (AR) (Rattus norvegicus, UniProt P07943)
T1 construct: The supernatant obtained was used as AR; from tissue; host or cells: lenses of male Wistar rats (10000 rpm supernatant of homogenate)
Test: Aldose-reductase inhibitory activity (decrease in absorbance of NADPH at 340 nm, glyceraldehyde substrate)
Format: biochemical, Wister male rats (lenses)
Settings: rat lens AR supernatant, 0.1M phosphate buffer pH 6.2, 30° C.
Procedure: The aldose-reductase (AR) activity was evaluated by determining spectrophotometrically the decrease in absorbance of NADPH at 340 nm due to the reduction of the substrate, i.e., glyceraldehyde according to the method described in Biochemical Pharmacology 25, pp 2505-2513 (1976).
The lenses of Wister male rats was homogenized with 0.5 ml of 0.1M phosphate buffer (pH 6.2) per lens by a glass homogenizer and the homogenate was centrifuged at 10000 rpm for 10 minutes. The supernatant obtained was used as AR.
The determination of the AR activity was conducted as follows. A 700 μl quantity of 0.1M phosphate buffer (pH 6.2), 100 μl of 2.21 mM NADPH, 100 μl of AR and 5 μl of DMSO containing each of test compounds in varying concentrations were placed in a cell for test sample, and 800 μl of 0.1M phosphate buffer (pH 6.2), 100 μl of 2.21 mM NADPH, 100 μl of AR and 5 μl of DMSO were placed in a cell for control. Then the solutions in the cells were thoroughly mixed together and the mixtures were maintained at 30° C. Then 100 μl of 100 mM glyceraldehyde maintained at 30° C. was added to a cell for test sample and quickly blended to initiate the reaction. The AR activity was determined from the rate of change of absorbance per minute in the linear part of variations of absorbance during a period of from 1 minute to three minutes after the start of the reaction, and a dose-response curve was drawn.

Row | Structure (SMILES) | IC50
1 | O=C(O)Cn1c(=O)n(Cc2ccc(Br)cc2F)c(=O)c2c3c(sc21)CCCC3 [Compound I-15] | 23 nM
2 | O=C(O)Cn1c(=O)n(Cc2ccc(Br)cc2F)c(=O)c2cc(Cl)sc21 [I-24 (Lysine salt)] | 25 nM
3 | O=C(O)Cn1c(=O)n(Cc2ccc(Br)cc2F)c(=O)c2cc(C3CCCC3)sc21 [Compound I-16] | 30 nM
4 | Cc1c(Cl)sc2c1c(=O)n(Cc1ccc(Cl)c(Cl)c1)c(=O)n2CC(=O)O [Compound I-11] | 25 nM
5 | CC(C)c1cc2c(=O)n(Cc3ccc(Br)cc3F)c(=O)n(CC(=O)O)c2s1 [Compound I-17] | 22 nM
6 | O=C(O)Cn1c(=O)n(Cc2ccc(Br)cc2F)c(=O)c2ccsc21 [Compound I-19] | 20 nM
7 | O=C(O)Cn1c(=O)n(Cc2ccc(Cl)cc2Cl)c(=O)c2c3c(sc21)CCCC3 [Compound I-8] | 42 nM
8 | Cc1csc2c1c(=O)n(Cc1ccc(Br)cc1F)c(=O)n2CC(=O)O [Compound I-20, 1-carboxymethyl-3-(4-bromo-2-fluorobenzyl)-5-methylthieno[2,3-d]pyrimidin-2,4(1H, 3H)-dione] | 24 nM
9 | Cc1sc2c(c1C)c(=O)n(Cc1ccc(Cl)cc1)c(=O)n2CC(=O)O [Compound I-1, 1-carboxymethyl-3-(4-chlorobenzyl)-5,6-dimethylthieno[2,3-d]pyrimidin-2,4(1H, 3H)-dione] | 75 nM
10 | O=C(O)Cn1c(=O)n(Cc2ccc(Br)cc2F)c(=O)c2cc(-c3ccccc3)sc21 [Compound I-13] | 34 nM
11 | Cc1csc2c1c(=O)n(Cc1ccc(Cl)c(Cl)c1)c(=O)n2CC(=O)O [Compound I-5] | 30 nM
12 | Cc1c(Br)sc2c1c(=O)n(Cc1ccc(Cl)c(Cl)c1)c(=O)n2CC(=O)O [Compound I-10] | 26 nM
13 | Cc1sc2c(c1C)c(=O)n(Cc1ccc(Cl)cc1Cl)c(=O)n2CC(=O)O [Compound I-2] | 20 nM
14 | Cc1sc2c(c1C)c(=O)n(Cc1ccc(Br)cc1F)c(=O)n2CC(=O)O [Compound I-14] | 21 nM
15 | CC(C)c1cc2c(=O)n(Cc3ccc(Cl)c(Cl)c3)c(=O)n(CC(=O)O)c2s1 [Compound I-3] | 26 nM
16 | CC(C)c1cc2c(=O)n(Cc3ccc(Cl)cc3Cl)c(=O)n(CC(=O)O)c2s1 [Compound I-4] | 17 nM
